# Source: PubChem BioAssay AID248 (DTP/NCI, 2004)
# Toxic doses and inconclusive results are not listed.
# Tested on: L1210 leukemia ip in BDF1 mice, survival T/C
# Experiment: NCI In Vivo Anticancer Drug Screen. Data for tumor model L1210 Leukemia (intraperitoneal) in B6D2F1 (BDF1) mice
# Details: endpoint: mean survival time, higher = longer survival
# Outline: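 Value reflects the ratio of survival in compound-treated mice to survival in vehicle-treated controls, with both groups carrying the same transplanted tumor.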
# [1] = dose: 100.0 mg/kg/injection, schedule: Q01DX009 (ip), vehicle: saline with Tween-80
# [2] = dose: 200.0 mg/kg/injection, schedule: Q01DX009 (ip), vehicle: saline with Tween-80
# [3] = dose: 400.0 mg/kg/injection, schedule: Q01DX009 (ip), vehicle: saline with Tween-80
# [4] = dose: 100.0 mg/kg/injection, schedule: Q04DX003 (ip), vehicle: saline with Tween-80
# [5] = dose: 200.0 mg/kg/injection, schedule: Q04DX003 (ip), vehicle: saline with Tween-80
# [6] = dose: 400.0 mg/kg/injection, schedule: Q04DX003 (ip), vehicle: saline with Tween-80
# [7] = dose: 50.0 mg/kg/injection, schedule: Q01DX001 (ip), vehicle: carboxymethylcellulose (CMC)
# [8] = dose: 100.0 mg/kg/injection, schedule: Q01DX001 (ip), vehicle: carboxymethylcellulose (CMC)
# [9] = dose: 200.0 mg/kg/injection, schedule: Q01DX001 (ip), vehicle: carboxymethylcellulose (CMC)
# [10] = dose: 400.0 mg/kg/injection, schedule: Q01DX001 (ip), vehicle: carboxymethylcellulose (CMC)
compound,measurement,setting,value
C/C(=N\O)c1ccc2ccc3ccccc3c2c1,T/C,"dose: 100.0 mg/kg/injection, schedule: Q01DX009 (ip), vehicle: saline sonified",105 % of control
same,T/C,[1],101 % of control
same,T/C,"dose: 100.0 mg/kg/injection, schedule: Q04DX003 (ip), vehicle: Klucel (hydroxypropylcellulose) (HPC)",103 % of control
same,T/C,"dose: 200.0 mg/kg/injection, schedule: Q01DX009 (ip), vehicle: saline sonified",93 % of control
same,T/C,[2],93 % of control
same,T/C,"dose: 200.0 mg/kg/injection, schedule: Q04DX003 (ip), vehicle: Klucel (hydroxypropylcellulose) (HPC)",103 % of control
same,T/C,"dose: 400.0 mg/kg/injection, schedule: Q01DX009 (ip), vehicle: saline sonified",94 % of control
same,T/C,[3],95 % of control
same,T/C,"dose: 400.0 mg/kg/injection, schedule: Q04DX003 (ip), vehicle: Klucel (hydroxypropylcellulose) (HPC)",115 % of control
CCOC(=O)C(CC1CCCCC1)(NC(C)=O)C(=O)OCC,T/C,"dose: 75.0 mg/kg/injection, schedule: Q04DX003 (ip), vehicle: saline",96 % of control
same,T/C,"dose: 150.0 mg/kg/injection, schedule: Q04DX003 (ip), vehicle: saline",104 % of control
same,T/C,"dose: 300.0 mg/kg/injection, schedule: Q04DX003 (ip), vehicle: saline",100 % of control
O=C1NC(c2ccccc2)C(=O)NC1c1ccccc1 (stereo not given),T/C,[4],94 % of control
same,T/C,[5],86 % of control
same,T/C,[6],89 % of control
CCC1(O)CC2CN(CCc3c([nH]c4ccccc34)C(C(=O)OC)(c3cc4c(cc3OC)N(C)C3C(O)(C(=O)NCCO)C(O)C5(CC)C=CCN6CCC43C65)C2)C1 (stereo not given),T/C,"dose: 0.16 mg/kg/injection, schedule: Q01DX009 (ip), vehicle: saline",123 % of control
same,T/C,"dose: 0.39 mg/kg/injection, schedule: Q04DX003 (ip), vehicle: saline",158 % of control
same,T/C,"dose: 1.2 mg/kg/injection, schedule: Q01DX009 (ip), vehicle: saline",116 % of control
same,T/C,"dose: 389.0 micrograms/kg/injection, schedule: Q04DX003 (ip), vehicle: saline",118 % of control
same,T/C,"dose: 648.0 micrograms/kg/injection, schedule: Q04DX003 (ip), vehicle: saline",106 % of control
same,T/C,"dose: 1080.0 micrograms/kg/injection, schedule: Q04DX003 (ip), vehicle: saline",123 % of control
same,T/C,"dose: 5000.0 micrograms/kg/injection, schedule: Q04DX003 (ip), vehicle: saline",115 % of control
N#CCc1ccc(Cl)cc1Cl,T/C,"dose: 12.5 mg/kg/injection, schedule: Q04DX002 (ip), vehicle: Klucel (hydroxypropylcellulose) (HPC)",97 % of control
same,T/C,"dose: 25.0 mg/kg/injection, schedule: Q04DX002 (ip), vehicle: Klucel (hydroxypropylcellulose) (HPC)",91 % of control
same,T/C,"dose: 50.0 mg/kg/injection, schedule: Q04DX002 (ip), vehicle: Klucel (hydroxypropylcellulose) (HPC)",87 % of control
O=C(Nc1cc(Cl)cc(Cl)c1)C(Cl)Cl,T/C,[7],117 % of control
same,T/C,[8],109 % of control
same,T/C,[9],105 % of control
same,T/C,[10],109 % of control
CC1=CC(C)(C)NC(=S)N1c1cc(Cl)ccc1Cl,T/C,[1],87 % of control
same,T/C,[2],90 % of control
same,T/C,"dose: 224.0 mg/kg/injection, schedule: Q01DX Z (ip), vehicle: methylcellulose (MC)",105 % of control
same,T/C,"dose: 334.0 mg/kg/injection, schedule: Q01DX Z (ip), vehicle: methylcellulose (MC)",89 % of control
same,T/C,[3],92 % of control
same,T/C,"dose: 500.0 mg/kg/injection, schedule: Q01DX Z (ip), vehicle: methylcellulose (MC)",86 % of control
Cc1ccc(C(=O)OCC2OC(OC3CC(OC(=O)c4ccc(C)cc4)C(COC(=O)c4ccc(C)cc4)O3)CC2OC(=O)c2ccc(C)cc2)cc1 (stereo not given),T/C,[7],101 % of control
same,T/C,[8],87 % of control
same,T/C,[9],101 % of control
same,T/C,[10],97 % of control
O=C1CSc2ccccc2N1,T/C,"dose: 12.5 mg/kg/injection, schedule: Q01DX009 (ip), vehicle: saline with Tween-80",94 % of control
same,T/C,"dose: 25.0 mg/kg/injection, schedule: Q01DX009 (ip), vehicle: saline with Tween-80",100 % of control
same,T/C,"dose: 50.0 mg/kg/injection, schedule: Q01DX009 (ip), vehicle: saline with Tween-80",102 % of control
same,T/C,"dose: 50.0 mg/kg/injection, schedule: Q04DX003 (ip), vehicle: saline with Tween-80",103 % of control
same,T/C,"dose: 100.0 mg/kg/injection, schedule: Q04DX002 (ip), vehicle: Klucel (hydroxypropylcellulose) (HPC)",97 % of control
same,T/C,[4],103 % of control
same,T/C,"dose: 200.0 mg/kg/injection, schedule: Q04DX002 (ip), vehicle: Klucel (hydroxypropylcellulose) (HPC)",95 % of control
same,T/C,[5],92 % of control
same,T/C,"dose: 400.0 mg/kg/injection, schedule: Q04DX002 (ip), vehicle: Klucel (hydroxypropylcellulose) (HPC)",110 % of control
COC(=O)c1ccc(C(=O)O)cc1,T/C,[4],100 % of control
same,T/C,[5],102 % of control
same,T/C,[6],91 % of control
C[n+]1ccc(/C=C/c2csc3ccccc23)cc1,T/C,"dose: 5.0 mg/kg/injection, schedule: Q01DX001 (ip), vehicle: carboxymethylcellulose (CMC)",107 % of control
same,T/C,"dose: 10.0 mg/kg/injection, schedule: Q01DX001 (ip), vehicle: carboxymethylcellulose (CMC)",96 % of control
same,T/C,"dose: 20.0 mg/kg/injection, schedule: Q01DX001 (ip), vehicle: carboxymethylcellulose (CMC)",91 % of control
same,T/C,"dose: 40.0 mg/kg/injection, schedule: Q01DX001 (ip), vehicle: carboxymethylcellulose (CMC)",98 % of control
